The values that follow come from patent publication EP4790048A1, “S1PR4 REGULATOR COMPOUND FOR AUTOIMMUNE DISEASE TREATMENT AND APPLICATION THEREOF” (Shengyuan Zetong (Shanghai) Pharmaceutical Co., Ltd, priority 2023, dated 2025).

In assay [1] the target is T1, hS1P4 (Homo sapiens, UniProt O95977).
T1 construct: expressed in transfected cells; host or cells: CHO
T1 sequence (O95977 1-384): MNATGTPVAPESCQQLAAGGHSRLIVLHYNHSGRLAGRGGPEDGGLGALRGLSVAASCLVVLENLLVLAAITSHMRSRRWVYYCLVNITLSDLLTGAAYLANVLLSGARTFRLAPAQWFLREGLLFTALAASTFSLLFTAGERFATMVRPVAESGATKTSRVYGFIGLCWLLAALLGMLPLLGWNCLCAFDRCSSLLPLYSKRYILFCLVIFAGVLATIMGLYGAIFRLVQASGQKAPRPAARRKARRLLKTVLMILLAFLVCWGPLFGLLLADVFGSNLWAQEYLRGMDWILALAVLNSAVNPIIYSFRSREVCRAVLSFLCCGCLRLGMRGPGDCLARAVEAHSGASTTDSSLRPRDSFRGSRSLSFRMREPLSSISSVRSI
Nature of the assay: Tango β-arrestin recruitment luciferase assay, Tango-hS1P4-CHO. The class given is cell-based. Summed up:
(§1)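 CHO Tango cells (receptor–V2 tail–TEV/tTA fusion, β-arrestin 2–TEV, UAS-luciferase reporter) plated overnight (20 h) at 37°C, then treated 20 h with compounds, top final 45 µM, 9 five-fold dilutions, triplicates. Luciferase luminescence read; BAF-312 positive control at 1 µM (S1PR1) or 25 µM (S1PR4).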

Assay [2] has as its system hS1P4. The assay is described as above. Format: cell-based, human. The following applies: S1PR4 versus S1PR1, β-arrestin recruitment EC50. Summed up: as §1
The next assay has as its target T2, hS1P4-R-79C (Homo sapiens, UniProt O95977, R79C).
T2 construct: expressed in transfected cells; host or cells: CHO
T2 sequence (O95977 1-384 R79C): T1 sequence (O95977 1-384) with R79C
Nature of the assay: Tango β-arrestin recruitment luciferase assay, Tango-hS1P4-R-79C-CHO (S1PR4 mutant). The class given is cell-based. The following applies: 20 h drug treatment. From the text: The Tango assay detects ligand-dependent GPCR activity through the interaction between β-arrestin and GPCRs. […] The NTEV fragment and the tetracycline transactivator (tTA), an artificial transcription factor, are fused at the C-terminus of the GPCR, while the CTEV fragment is fused to human β-arrestin 2. To enhance the stability of the interaction between GPCR and β-arrestin, a short sequence from the C-terminus of the human arginine vasopressin receptor 2 (V2 tail) is inserted between the GPCR and NTEV. The V2 tail contains multiple GRK phosphorylation sites, which strengthen β-arrestin binding upon phosphorylation. The CTEV fragment carries the stabile point mutation S219P and is truncated at residue 221 to remove the autoinhibitory C-terminal tail. Meanwhile, β-arrestin 2 is truncated to lack the entire C-terminal tail (residues 383-410 deleted). This truncation confers robust stimulus-dependent receptor desensitization, thereby improving detection sensitivity compared with wild-type β-arrestin 2. The UAS reporter construct consists of upstream activating sequence (UAS) elements, a minimal CMV promoter, and a tTA-dependent luciferase reporter gene. Therefore, constructing Tango cells requires the co-transfection of the above three plasmids into host cells. Upon GPCR activation and β-arrestin recruitment, the TEV enzyme at the β-arrestin terminus cleaves tTA from the GPCR C-terminus. The released tTA initiates tTA-dependent luciferase transcription, and compound activity is ultimately determined by measuring luminescence intensity.
• 1) Tango cell line from was digested from the culture dish respectively. After cell counting, the cells were plated at a density of 10,000 cells per well with […] into a white opaque 96-well plate (add 60 µL D'Hanks to the surrounding wells), and incubated overnight (20 h) in a 5% CO2 incubator at 37°C. The cell density will reach approximately 90% the next day. • 2) After 20 h, 30 µL of serially diluted compound solution was added to each well. The control group was supplemented with 30 µL F12K complete medium. Each group had three replicate wells. • 3) Samples were collected after 20 h of drug treatment.
(All compounds were tested at a final concentration of 45 µM, with 9 serial dilutions at 5-fold intervals. 1 µM BAF-312 was used as the positive control for S1PR1, and 25 µM BAF-312 was used as the positive control for S1PR4.

Setting [3] is: S1PR4, Tango-S1PR4-CHO-K1 cells, mean ± SD, read-out: EC50.
[4] abbreviates: β-arrestin recruitment, 20 h drug treatment, top 45 µM, 9 serial 5-fold dilutions, positive control 25 µM BAF-312, read-out: Tango-hS1P4-CHO EC50.

SMILES strings stand for the structures. Residue numbers refer to the chain shown, from its start. Where two headings read alike, the source gives them in different places.

Regarding `CCc1cc(/C(C)=N/OCc2ccc(-c3ccccc3)c(C)c2)ccc1CN1CC[C@H](C(=O)O)C1` [Compound 30], the EC50 on hS1P4 [1] (setting [3]) stood at 9.09 ± 0.67 nM; at hS1P4 [1] (setting [4]), 9.09 nM; on hS1P4-R-79C it was 15 nM. Further, the “selectivity over S1PR1” value in the assay with hS1P4 [2] is on record as “approximately 10 fold”.
Turning to `CCc1cc(/C(C)=N/OCc2ccc(-c3cnc(F)cn3)c(C)c2)ccc1CN1CC[C@H](C(=O)O)C1` [Compound 67, (S, E)-1-(2-ethyl-4-(1-(((4-(5-fluoropyrazin-2-yl)-3-methylbenzyl)oxy)imino)ethyl)benzyl)pyrrolidine-3-carboxylic acid], the EC50 on hS1P4 [1] (setting [3]) turned out to be 1.8 ± 0.43 nM; at hS1P4 [1] (setting [4]), 1.8 nM. Further, in the assay with hS1P4 [2], the “selectivity over S1PR1” value was “more than 100 fold”.
